Results on 1 compound are retold here after ChEMBL document CHEMBL5537122, “Design, synthesis, and biological evaluation of 4-(2-fluorophenoxy)-7-methoxyquinazoline derivatives as dual EGFR/c-Met inhibitors for the treatment of NSCLC” (Eur J Med Chem, 2024).

As a reminder, the inhibition is the drop in the measured response relative to a control, in per cent.

For data set [1], the system named is A549. In words: Induction in apoptosis in human A549 cells overexpressing c-MET assessed as viable cells at 1 uM incubated for 24 hrs by Annexin V-FITC/Propidium Iodide staining based flow cytometry analysis (reference value: 81.92 %). The class given is functional. The conditions noted are these: read-out: Activity.
Data set [2] relates to A549. In words: Induction in apoptosis in human A549 cells overexpressing c-MET assessed as necrotic cells at 2.5 uM incubated for 24 hrs by Annexin V-FITC/Propidium Iodide staining based flow cytometry analysis (reference value: 3.22 %). The class given is functional.
The test system of data set [3] is NCI-H1975. In words: Induction in apoptosis in human NCI-H1975 cells assessed as late apoptotic cells at 2.5 uM incubated for 24 hrs by Annexin V-FITC/Propidium Iodide staining based flow cytometry analysis (reference value: 4.46 %). The format is functional. For orientation: Flow cytometry measures light scatter and fluorescence of single cells or particles in a stream.

A short description of data set [4]: Induction in apoptosis in human L02 cells assessed as viable cells at 2.5 uM incubated for 24 hrs by Annexin V-FITC/Propidium Iodide staining based flow cytometry analysis (reference value: 92.75 %). The format is toxicity, cell-based. Particulars: read-out: Activity.
Data set [5] concerns L02. In words: Induction in apoptosis in human L02 cells assessed as early apoptotic cells at 2.5 uM incubated for 24 hrs by Annexin V-FITC/Propidium Iodide staining based flow cytometry analysis (reference value: 0.26 %). The class given is toxicity, cell-based. Particulars: l02, 24 h.
In data set [6] the test system is L02. In words: Induction in apoptosis in human L02 cells assessed as necrotic cells at 2.5 uM incubated for 24 hrs by Annexin V-FITC/Propidium Iodide staining based flow cytometry analysis (reference value: 6.63 %). Particulars: l02, 24 h. The format is toxicity, cell-based.
The subject of data set [7] is A549. In words: Induction of cell cycle arrest in human A549 cells overexpressing c-MET assessed as accumulation of cells at G2/M phase at 2.5 uM incubated for 24 hrs by RNase A/propidium iodide staining based flow cytometric analysis (reference value: 12.41 %). The class given is functional.
The target of data set [8] is T1, Hepatocyte growth factor receptor (Homo sapiens, UniProt P08581). In words: Inhibition of c-MET (unknown origin) at 10 uM relative to control.
For data set [9], the target named is Vascular endothelial growth factor receptor 3 (Homo sapiens) (UniProt P35916). In words: Inhibition of FLT4 (unknown origin) at 10 uM.
For data set [10], the target named is Tyrosine-protein kinase receptor UFO (Homo sapiens) (UniProt P30530). In words: Inhibition of AXL (unknown origin) at 10 uM.
The target of data set [11] is Insulin-like growth factor 1 receptor (Homo sapiens) (UniProt P08069). In words: Inhibition of IGF-1R (unknown origin) at 10 uM.
The target in data set [12] is Insulin receptor (Homo sapiens) (UniProt P06213). In words: Inhibition of INSR (unknown origin) at 10 uM.
The target in data set [13] is Fibroblast growth factor receptor 3 (Homo sapiens) (UniProt P22607). In words: Inhibition of FGFR3 (unknown origin) at 10 uM.
The target of data set [14] is Serine/threonine-protein kinase Nek2 (Homo sapiens) (UniProt P51955). In words: Inhibition of NEK2 (unknown origin) at 10 uM.
A short description of data set [15]: Hepatotoxicity in KM mouse assessed as effect on aspartate aminotransferase level at 100 mg/kg, IG qd administered for 7 days by automatic biochemical analyzer. The class given is toxicity, organism-based. Particulars: in vivo, po, 168 h, time 7 day.
The nature of data set [16]: Acute toxicity in KM mouse assessed as effect on glucose level at 100 mg/kg, IG qd administered for 7 days by automatic biochemical analyzer. The format is organism-based. The conditions noted are these: in vivo, po, 168 h, time 7 day.
Data set [17] can be described thus: Acute toxicity in KM mouse assessed as cell damage or necrosis in heart at 100 mg/kg, IG qa administered for 7 days and measured on day 8 by hematoxylin and eosin staining based assay. The class given is organism-based. Particulars: in vivo, po, 192 h, time 8 day.
Data set [18] in a line: Acute toxicity in KM mouse assessed as cell damage or necrosis in liver at 100 mg/kg, IG qa administered for 7 days and measured on day 8 by hematoxylin and eosin staining based assay. Particulars: in vivo, po, 192 h, time 8 day. The class given is organism-based.
Data set [19] in a line: Acute toxicity in KM mouse assessed as cell damage or necrosis in spleen at 100 mg/kg, IG qa administered for 7 days and measured on day 8 by hematoxylin and eosin staining based assay. The class given is organism-based. Particulars: in vivo, po, 192 h, time 8 day.
Data set [20] concerns A549. In words: Antitumor activity against human A549 cells overexpressing c-MET xenografted in BALB/c nude mouse assessed as tumor growth inhibition at 40 mg/kg, IG qod measured for 24 days relative to control. The class given is functional. Particulars: A549, po, 576 h, time 24 day, read-out: TGI. On the technique in general: In xenograft studies the graft and the host belong to different species.

The target in data set [21] is T1, Hepatocyte growth factor receptor. In words: Potency index, ratio of foretinib IC50 to test compound IC50 for inhibition of N-terminal GST tagged human recombinant c-Met (956 to end residues) expressed in baculovirus infected Sf9 cells using Poly (4:1 Glu, Tyr) as substrate incubated for 60 mins in presence of ATP by ADP-Glo luminescent assay. For orientation: In ADP-Glo the light output rises with the ADP produced.

The structures appear in SMILES notation. Calls of active or inactive are those of the source. The rule behind the calls is not given here. Some results are limits rather than exact numbers.

T1 sequence (P08581 whole entry): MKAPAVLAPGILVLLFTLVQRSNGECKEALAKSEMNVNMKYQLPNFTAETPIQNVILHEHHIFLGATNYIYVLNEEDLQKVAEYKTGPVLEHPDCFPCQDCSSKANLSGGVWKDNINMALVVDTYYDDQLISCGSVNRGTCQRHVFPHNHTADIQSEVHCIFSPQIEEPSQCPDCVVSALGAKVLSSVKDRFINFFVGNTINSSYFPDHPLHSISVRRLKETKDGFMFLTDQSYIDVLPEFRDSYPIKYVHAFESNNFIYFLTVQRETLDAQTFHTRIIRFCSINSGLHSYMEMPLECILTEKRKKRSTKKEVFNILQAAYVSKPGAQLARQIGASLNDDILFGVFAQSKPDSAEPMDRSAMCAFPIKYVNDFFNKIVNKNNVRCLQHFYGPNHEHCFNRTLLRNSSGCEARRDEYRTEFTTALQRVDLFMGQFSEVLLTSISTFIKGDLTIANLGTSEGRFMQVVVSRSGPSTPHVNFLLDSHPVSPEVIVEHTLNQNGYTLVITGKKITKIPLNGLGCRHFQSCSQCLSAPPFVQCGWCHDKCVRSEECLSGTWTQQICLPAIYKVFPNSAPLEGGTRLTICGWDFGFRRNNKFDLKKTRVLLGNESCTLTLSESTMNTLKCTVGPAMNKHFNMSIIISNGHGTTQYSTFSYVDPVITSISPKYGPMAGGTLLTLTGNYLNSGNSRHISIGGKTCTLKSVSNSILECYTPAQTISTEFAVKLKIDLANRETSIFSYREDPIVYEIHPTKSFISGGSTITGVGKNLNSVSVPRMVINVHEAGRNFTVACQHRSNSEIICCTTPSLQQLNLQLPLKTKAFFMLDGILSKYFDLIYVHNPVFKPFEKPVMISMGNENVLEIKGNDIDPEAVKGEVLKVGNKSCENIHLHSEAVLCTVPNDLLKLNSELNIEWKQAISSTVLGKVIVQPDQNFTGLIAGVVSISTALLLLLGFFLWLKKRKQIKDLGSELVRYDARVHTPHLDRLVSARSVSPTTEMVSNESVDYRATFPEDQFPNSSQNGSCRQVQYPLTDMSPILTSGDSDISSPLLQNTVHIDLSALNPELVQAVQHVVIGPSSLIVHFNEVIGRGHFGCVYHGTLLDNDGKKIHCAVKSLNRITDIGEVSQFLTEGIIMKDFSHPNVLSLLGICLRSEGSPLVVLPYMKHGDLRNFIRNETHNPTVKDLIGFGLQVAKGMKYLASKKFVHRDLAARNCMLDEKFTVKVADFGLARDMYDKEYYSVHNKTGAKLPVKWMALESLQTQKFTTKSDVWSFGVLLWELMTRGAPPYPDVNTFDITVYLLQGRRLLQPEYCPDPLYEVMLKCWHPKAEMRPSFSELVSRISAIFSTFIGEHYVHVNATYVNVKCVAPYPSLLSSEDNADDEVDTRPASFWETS
Sequence of Insulin receptor (Homo sapiens) (P06213 28-758 limits assumed): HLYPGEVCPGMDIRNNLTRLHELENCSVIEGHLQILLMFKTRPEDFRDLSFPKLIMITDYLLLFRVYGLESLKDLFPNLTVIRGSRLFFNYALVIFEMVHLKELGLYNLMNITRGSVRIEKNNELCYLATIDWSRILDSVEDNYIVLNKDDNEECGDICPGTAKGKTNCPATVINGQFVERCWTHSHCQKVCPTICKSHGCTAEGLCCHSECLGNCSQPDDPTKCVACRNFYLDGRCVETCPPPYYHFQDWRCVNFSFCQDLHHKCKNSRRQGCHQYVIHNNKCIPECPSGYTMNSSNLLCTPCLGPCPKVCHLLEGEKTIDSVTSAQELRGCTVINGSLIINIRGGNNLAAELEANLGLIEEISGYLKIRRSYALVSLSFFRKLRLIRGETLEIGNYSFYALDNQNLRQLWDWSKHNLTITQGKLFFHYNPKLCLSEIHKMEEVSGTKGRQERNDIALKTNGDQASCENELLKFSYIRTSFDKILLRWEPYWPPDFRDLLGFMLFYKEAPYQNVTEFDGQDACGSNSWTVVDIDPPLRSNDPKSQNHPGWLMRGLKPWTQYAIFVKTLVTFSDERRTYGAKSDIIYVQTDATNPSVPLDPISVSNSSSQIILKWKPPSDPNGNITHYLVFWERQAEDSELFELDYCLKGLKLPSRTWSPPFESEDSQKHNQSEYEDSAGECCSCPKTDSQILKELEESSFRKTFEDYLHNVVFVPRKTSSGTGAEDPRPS
Sequence of Insulin receptor (Homo sapiens) (P06213 763-1382 limits assumed): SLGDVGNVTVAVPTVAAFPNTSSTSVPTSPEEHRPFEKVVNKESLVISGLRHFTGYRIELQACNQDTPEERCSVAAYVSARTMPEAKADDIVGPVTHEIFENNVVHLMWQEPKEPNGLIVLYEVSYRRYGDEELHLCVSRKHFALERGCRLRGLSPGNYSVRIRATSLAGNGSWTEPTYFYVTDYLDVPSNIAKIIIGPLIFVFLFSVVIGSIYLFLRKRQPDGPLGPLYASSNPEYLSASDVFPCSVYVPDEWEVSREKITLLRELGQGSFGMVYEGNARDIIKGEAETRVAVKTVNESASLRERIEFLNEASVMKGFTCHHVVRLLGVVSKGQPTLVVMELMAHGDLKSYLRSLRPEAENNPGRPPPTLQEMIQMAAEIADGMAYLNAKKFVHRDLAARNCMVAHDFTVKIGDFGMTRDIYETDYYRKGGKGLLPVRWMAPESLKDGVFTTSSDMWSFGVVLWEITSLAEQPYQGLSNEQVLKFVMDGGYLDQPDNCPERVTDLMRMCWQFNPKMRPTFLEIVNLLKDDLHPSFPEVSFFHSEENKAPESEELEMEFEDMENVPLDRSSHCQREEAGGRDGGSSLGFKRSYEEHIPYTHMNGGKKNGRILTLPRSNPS
Sequence of Insulin-like growth factor 1 receptor (Homo sapiens) (P08069 31-736 limits assumed): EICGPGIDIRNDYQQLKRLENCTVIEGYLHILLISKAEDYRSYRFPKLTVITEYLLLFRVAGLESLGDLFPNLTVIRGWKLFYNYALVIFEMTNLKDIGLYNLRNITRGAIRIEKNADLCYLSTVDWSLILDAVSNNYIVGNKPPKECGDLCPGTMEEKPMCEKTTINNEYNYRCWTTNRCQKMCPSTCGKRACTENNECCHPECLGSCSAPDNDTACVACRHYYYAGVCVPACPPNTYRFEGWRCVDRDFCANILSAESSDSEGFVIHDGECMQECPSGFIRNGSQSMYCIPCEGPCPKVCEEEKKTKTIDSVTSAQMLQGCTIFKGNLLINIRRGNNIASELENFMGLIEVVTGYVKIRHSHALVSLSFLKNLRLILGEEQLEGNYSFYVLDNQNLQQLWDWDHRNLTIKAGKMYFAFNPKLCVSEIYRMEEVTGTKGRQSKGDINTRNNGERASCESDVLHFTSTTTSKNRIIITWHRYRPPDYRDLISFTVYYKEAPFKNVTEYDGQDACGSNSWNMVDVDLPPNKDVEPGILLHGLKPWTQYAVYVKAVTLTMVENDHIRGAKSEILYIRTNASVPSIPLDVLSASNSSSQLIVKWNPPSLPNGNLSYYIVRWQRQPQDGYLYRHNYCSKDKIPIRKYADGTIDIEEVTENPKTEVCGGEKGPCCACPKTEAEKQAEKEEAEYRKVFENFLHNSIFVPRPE
Sequence of Insulin-like growth factor 1 receptor (Homo sapiens) (P08069 741-1367 limits assumed): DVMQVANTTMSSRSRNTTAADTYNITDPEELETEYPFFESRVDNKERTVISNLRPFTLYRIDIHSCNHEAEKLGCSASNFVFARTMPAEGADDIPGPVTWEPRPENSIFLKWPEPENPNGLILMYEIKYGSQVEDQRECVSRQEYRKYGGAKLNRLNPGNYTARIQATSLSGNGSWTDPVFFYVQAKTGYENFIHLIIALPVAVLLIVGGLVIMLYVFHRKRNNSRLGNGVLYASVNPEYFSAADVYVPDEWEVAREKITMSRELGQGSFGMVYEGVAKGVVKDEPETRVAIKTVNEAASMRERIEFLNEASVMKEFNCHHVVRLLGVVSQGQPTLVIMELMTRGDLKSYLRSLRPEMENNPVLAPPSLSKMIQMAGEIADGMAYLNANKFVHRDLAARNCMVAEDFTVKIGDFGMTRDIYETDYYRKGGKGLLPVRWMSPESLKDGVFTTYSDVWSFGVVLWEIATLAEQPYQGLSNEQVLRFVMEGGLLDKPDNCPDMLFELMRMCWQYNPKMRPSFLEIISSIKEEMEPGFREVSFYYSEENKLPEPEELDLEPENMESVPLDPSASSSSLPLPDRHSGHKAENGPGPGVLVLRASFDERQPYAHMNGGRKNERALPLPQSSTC
Sequence of Tyrosine-protein kinase receptor UFO (Homo sapiens) (P30530 whole entry): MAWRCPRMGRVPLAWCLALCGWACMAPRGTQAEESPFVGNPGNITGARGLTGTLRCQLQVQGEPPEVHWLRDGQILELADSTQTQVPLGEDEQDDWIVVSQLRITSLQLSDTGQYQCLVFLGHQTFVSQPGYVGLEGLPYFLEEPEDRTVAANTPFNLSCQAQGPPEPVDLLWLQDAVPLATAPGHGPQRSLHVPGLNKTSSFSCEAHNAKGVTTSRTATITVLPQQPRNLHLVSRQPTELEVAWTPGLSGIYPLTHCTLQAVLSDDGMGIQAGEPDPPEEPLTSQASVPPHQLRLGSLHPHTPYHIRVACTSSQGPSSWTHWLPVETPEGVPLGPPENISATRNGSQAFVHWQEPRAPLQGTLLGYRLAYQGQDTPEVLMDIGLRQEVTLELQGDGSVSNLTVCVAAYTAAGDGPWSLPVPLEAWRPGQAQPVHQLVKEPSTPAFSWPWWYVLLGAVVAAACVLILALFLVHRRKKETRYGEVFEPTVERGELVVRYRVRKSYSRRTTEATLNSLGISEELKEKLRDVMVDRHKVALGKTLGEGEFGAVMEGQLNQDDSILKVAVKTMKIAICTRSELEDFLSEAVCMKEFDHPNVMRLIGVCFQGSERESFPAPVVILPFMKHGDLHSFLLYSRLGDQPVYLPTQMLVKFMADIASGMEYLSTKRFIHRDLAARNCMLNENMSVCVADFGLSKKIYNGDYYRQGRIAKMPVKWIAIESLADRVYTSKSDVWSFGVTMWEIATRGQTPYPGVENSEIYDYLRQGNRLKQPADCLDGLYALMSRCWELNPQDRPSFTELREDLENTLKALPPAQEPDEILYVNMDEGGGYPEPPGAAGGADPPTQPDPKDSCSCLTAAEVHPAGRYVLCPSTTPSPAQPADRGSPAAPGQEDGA

With `C=CC(=O)Nc1cc2c(Oc3ccc(NC(=O)n4c(=O)c(-c5ccccc5)c(C)n4C)cc3F)cccc2cc1OC`, in data set [1], the viability at 1 µM was found to be 70.9%. Also, the Activity was 6.65% in data set [2]; 8.17% in data set [3]; 0.13% in data set [5]; 4.53% in data set [6]; 10.98% in data set [7]; “Non-Toxic” in data set [15]. In addition, the Activity result in data set [16], in data set [17], in data set [18] and in data set [19] was “Non-Toxic” in each case. Moreover, the viability at 24 h, 2.5 µM in [4] worked out at 95%. In data set [8], this compound had an inhibition above 90%. Also, the inhibition result in data set [9] was “Active”. For the same compound, the inhibition entry in data set [10], in [11], in [12], in data set [13] and in data set [14] was “inactive” throughout. The inhibition in vivo at 40 mg/kg in data set [20] came out at 25%. Besides, the Ratio IC50 in [21] is 28.
